According to patent US11655235B2, “Pyrrolidine and piperidine compounds” (YUHAN CORPORATION, priority 2019, dated 2023):

Legend:
recombinant human DPP7 = biological target: T1, recombinant human DPP7 (Homo sapiens, UniProt Q9UHL4); experiment: DPP7 inhibition, fluorogenic substrate Lys-Pro-AMC; assay type: biochemical; conditions: recombinant human DPP7
T1 construct: purchased R&D Systems
In short: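 Enzyme per reaction: 50 ng DPP9, 20 ng DPP8, 10 ng each DPP7 and PREP. Compounds were serially diluted (8 points, up to 0.5% DMSO) and incubated at 25 °C.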

Recombinant human FAP = biological target: T2, Recombinant human FAP (Homo sapiens, UniProt Q12884); experiment: FAP FRET assay, FGF21-sequence FRET peptide substrate; assay type: biochemical; conditions: FRET peptide with human FGF21 sequence, 6 μM, 37° C.
T2 construct: purchased R&D systems
T2 sequence (Q12884 1-760): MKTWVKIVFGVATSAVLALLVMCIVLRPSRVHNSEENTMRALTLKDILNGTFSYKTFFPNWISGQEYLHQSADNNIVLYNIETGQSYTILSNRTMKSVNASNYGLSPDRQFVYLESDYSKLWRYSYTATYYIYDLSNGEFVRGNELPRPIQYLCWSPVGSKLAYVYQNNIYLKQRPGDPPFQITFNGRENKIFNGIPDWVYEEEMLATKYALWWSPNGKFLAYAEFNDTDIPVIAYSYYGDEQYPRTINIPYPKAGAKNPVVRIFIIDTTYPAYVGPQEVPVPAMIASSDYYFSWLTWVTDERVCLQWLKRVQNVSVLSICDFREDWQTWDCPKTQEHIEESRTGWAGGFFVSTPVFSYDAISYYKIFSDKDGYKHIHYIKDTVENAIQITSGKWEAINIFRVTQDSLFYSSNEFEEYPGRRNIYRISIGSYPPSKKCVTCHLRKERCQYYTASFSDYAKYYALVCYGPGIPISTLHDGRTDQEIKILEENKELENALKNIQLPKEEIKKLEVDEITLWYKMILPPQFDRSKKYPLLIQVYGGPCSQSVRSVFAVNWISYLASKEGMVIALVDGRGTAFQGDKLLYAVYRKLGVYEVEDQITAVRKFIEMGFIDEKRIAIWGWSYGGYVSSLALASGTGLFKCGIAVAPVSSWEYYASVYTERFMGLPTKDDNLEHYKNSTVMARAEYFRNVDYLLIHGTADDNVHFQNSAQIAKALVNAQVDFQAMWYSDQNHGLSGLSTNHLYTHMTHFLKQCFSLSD
In short: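 Recombinant human FAP, 10 ng per reaction, in 50 mM HEPES pH 7.2 with 150 mM NaCl, 0.1 mg/ml BSA, 1 mM EDTA; HyLite Fluor 488/QXL 520 FRET peptide of human FGF21 sequence at 6 μM final, ≤0.1% DMSO, 37° C. IC50 from 8-point curves by four-parameter logistic fit.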

SMILES	IC50 (recombinant human DPP7) [nM]	IC50 (Recombinant human FAP) [nM]
N#C[C@@H]1C[C@H](F)CN1C(=O)CN1CC[C@H](Nc2cccc3ncccc23)C1 [Example 228, (2S,4S)-4-fluoro-1-[2-[(3S)-3-(5-quinolylamino)pyrrolidin-1-yl]acetyl]pyrrolidine-2-carbonitrile]	387	3
N#Cc1cnc2cccc(N[C@H]3CCN(CC(=O)N4CCC[C@H]4C#N)C3)c2c1 [Example 232, 5-[[(3S)-1-[2-oxo-2-[(2S)-2-cyanopyrrolidin-1-yl]ethyl]pyrrolidin-3-yl]amino]quinoline-3-carbonitrile]	7150	1.8
COc1cnc2cccc(N[C@H]3CCN(CC(=O)N4CCC[C@H]4C#N)C3)c2c1 [Example 233, (2S)-1-[2-[(3S)-3-[(3-methoxy-5-quinolyl)amino]pyrrolidin-1-yl]acetyl]pyrrolidine-2-carbonitrile]	1070	0.7
N#C[C@@H]1CCCN1C(=O)CN1CC[C@H](Nc2ccc(F)c3ncccc23)C1 [Example 244, (2S)-1-[2-[(3S)-3-[(8-fluoro-5-quinolyl)amino]pyrrolidin-1-yl]acetyl]pyrrolidine-2-carbonitrile]	9140	5.6
N#C[C@@H]1CCCN1C(=O)CN1CC[C@H](Nc2ccc(C(F)(F)F)c3ncccc23)C1 [Example 245, (2S)-1-[2-[(3S)-3-[[8-(trifluoromethyl)-5-quinolyl]amino]pyrrolidin-1-yl]acetyl]pyrrolidine-2-carbonitrile]	3750	1.2
N#Cc1ccc(N[C@H]2CCN(CC(=O)N3CCC[C@H]3C#N)C2)c2cccnc12 [Example 247, 5-[[(3S)-1-[2-oxo-2-[(2S)-2-cyanopyrrolidin-1-yl]ethyl]pyrrolidin-3-yl]amino]quinoline-8-carbonitrile]	> 50000	2
N#C[C@@H]1C[C@H](F)CN1C(=O)CN1CC[C@H](Nc2cccc3ncc(F)cc23)C1 [Example 255, (2S,4S)-4-fluoro-1-[2-[(3S)-3-[(3-fluoro-5-quinolyl)amino]pyrrolidin-1-yl]acetyl]pyrrolidine-2-carbonitrile]	1850	1
COc1ccc(N[C@H]2CCN(CC(=O)N3C[C@@H](F)C[C@H]3C#N)C2)c2cccnc12 [Example 263, (2S,4S)-4-fluoro-1-[2-[(3S)-3-[(8-methoxy-5-quinolyl)amino]pyrrolidin-1-yl]acetyl]pyrrolidine-2-carbonitrile]	554	1.9
N#C[C@@H]1C[C@H](F)CN1C(=O)CN1CC[C@H](Nc2ccc(OC(F)(F)F)c3ncccc23)C1 [Example 266, (2S,4S)-4-fluoro-1-[2-[(3S)-3-[[8-(trifluoromethoxy)-5-quinolyl]amino]pyrrolidin-1-yl]acetyl]pyrrolidine-2-carbonitrile]	1070	1.2
N#C[C@@H]1C[C@H](F)CN1C(=O)CN1CC[C@H](Nc2ccc(OCc3ccccc3)c3ncccc23)C1 [Example 268, (2S,4S)-4-fluoro-1-[2-[(3S)-3-[(8-benzyloxy-5-quinolyl)amino]pyrrolidin-1-yl]acetyl]pyrrolidine-2-carbonitrile]	511	0.7
N#C[C@@H]1C[C@H](F)CN1C(=O)CN1CCC(Nc2ccc(C(F)(F)F)c3ncccc23)CC1 [Example 334, (2S,4S)-4-fluoro-1-[2-[4-[[8-(trifluoromethyl)-5-quinolyl]amino]-1-piperidyl]acetyl]pyrrolidine-2-carbonitrile]	404	2.6
N#C[C@@H]1C[C@H](F)CN1C(=O)CN1CCC(Nc2ccc(OC(F)(F)F)c3ncccc23)CC1 [Example 347, (2S,4S)-4-fluoro-1-[2-[4-[[8-(trifluoromethoxy)-5-quinolyl]amino]-1-piperidyl]acetyl]pyrrolidine-2-carbonitrile]	1010	5.7
COc1cnc2cccc(NC3CCN(CC(=O)N4C[C@@H](F)C[C@H]4C#N)CC3)c2c1 [Example 348, (2S,4S)-4-fluoro-1-[2-[4-[(3-methoxy-5-quinolyl)amino]-1-piperidyl]acetyl]pyrrolidine-2-carbonitrile]	612	3.9
N#C[C@@H]1C[C@H](F)CN1C(=O)CN1CCC(Nc2cccc3ncc(F)cc23)CC1 [Example 349, (2S,4S)-4-fluoro-1-[2-[4-[(3-fluoro-5-quinolyl)amino]-1-piperidyl]acetyl]pyrrolidine-2-carbonitrile]	1990	4
N#C[C@@H]1C[C@H](F)CN1C(=O)CN1CCC(Nc2cccc3cnc(Cl)cc23)CC1 [Example 352, (2S,4S)-1-[2-[4-[(3-chloro-5-isoquinolyl)amino]-1-piperidyl]acetyl]-4-fluoro-pyrrolidine-2-carbonitrile]	2930	2.5
COc1cc2c(NC3CCN(CC(=O)N4C[C@@H](F)C[C@H]4C#N)CC3)cccc2cn1 [Example 355, (2S,4S)-4-fluoro-1-[2-[4-[(3-methoxy-5-isoquinolyl)amino]-1-piperidyl]acetyl]pyrrolidine-2-carbonitrile]	846	2.5
Cc1ccc2nccc(OC3CCN(CC(=O)N4C[C@@H](F)C[C@H]4C#N)CC3)c2c1 [Example 410, (2S,4S)-4-fluoro-1-[2-[4-[(6-methyl-4-quinolyl)oxy]-1-piperidyl]acetyl]pyrrolidine-2-carbonitrile]	4730	1.5
